In patent US11339130B1 (Blade Therapeutics, Inc., priority 2016, dated 2022) one finds IC50 data, which are given here for 13 compounds.

Like-named read-outs stand apart in the source and are kept apart here.

The target in one test is T1, Human Calpain 1/NS1 (Homo sapiens, UniProt P07384).
T1 sequence (P07384 1-714): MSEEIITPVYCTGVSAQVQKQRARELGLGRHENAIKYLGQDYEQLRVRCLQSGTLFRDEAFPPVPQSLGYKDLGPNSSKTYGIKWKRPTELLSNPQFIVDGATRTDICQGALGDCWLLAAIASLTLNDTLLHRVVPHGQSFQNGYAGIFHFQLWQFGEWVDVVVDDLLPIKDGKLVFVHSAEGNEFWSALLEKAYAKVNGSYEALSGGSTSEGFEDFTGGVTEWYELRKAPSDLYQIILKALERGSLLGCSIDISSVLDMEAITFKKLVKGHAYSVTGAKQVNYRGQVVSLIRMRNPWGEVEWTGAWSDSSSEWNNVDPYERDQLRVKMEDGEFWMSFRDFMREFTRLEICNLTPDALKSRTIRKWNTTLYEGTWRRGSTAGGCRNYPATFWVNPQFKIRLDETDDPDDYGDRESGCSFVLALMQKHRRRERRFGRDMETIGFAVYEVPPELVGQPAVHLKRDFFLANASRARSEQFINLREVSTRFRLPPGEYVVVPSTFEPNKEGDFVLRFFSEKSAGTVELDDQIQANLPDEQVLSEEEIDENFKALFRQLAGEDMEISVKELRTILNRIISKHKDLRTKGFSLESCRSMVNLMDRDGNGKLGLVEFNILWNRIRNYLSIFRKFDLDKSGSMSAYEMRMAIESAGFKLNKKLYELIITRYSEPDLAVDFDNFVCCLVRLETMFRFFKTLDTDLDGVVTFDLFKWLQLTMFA
T1 sequence (P04632 1-268 partner): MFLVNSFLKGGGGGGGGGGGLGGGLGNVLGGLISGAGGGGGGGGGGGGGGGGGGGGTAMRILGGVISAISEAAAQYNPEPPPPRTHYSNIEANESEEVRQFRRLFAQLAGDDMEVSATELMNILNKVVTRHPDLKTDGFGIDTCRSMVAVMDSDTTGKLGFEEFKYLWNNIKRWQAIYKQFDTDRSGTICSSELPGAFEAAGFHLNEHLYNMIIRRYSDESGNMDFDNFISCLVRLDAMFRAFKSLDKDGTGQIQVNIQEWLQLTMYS
Nature of the test: Calpain inhibition continuous fluorescence (FRET) assay, Human Calpain 1/NS1. The format is biochemical. Put shortly:
(§1)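 Buffer 50 mM Tris pH 7.5/100 mM NaCl/1 mM DTT; enzyme + cpd preinc 25C; start w/ FRET substrate + CaCl2; kinetic 490/520 nm, 10 min; slopes 1-5 min; 4-PL IC50.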

In a further test the target is T2, Human Calpain 2/NS1 (Homo sapiens, UniProt P17655).
T2 sequence (P17655 1-700): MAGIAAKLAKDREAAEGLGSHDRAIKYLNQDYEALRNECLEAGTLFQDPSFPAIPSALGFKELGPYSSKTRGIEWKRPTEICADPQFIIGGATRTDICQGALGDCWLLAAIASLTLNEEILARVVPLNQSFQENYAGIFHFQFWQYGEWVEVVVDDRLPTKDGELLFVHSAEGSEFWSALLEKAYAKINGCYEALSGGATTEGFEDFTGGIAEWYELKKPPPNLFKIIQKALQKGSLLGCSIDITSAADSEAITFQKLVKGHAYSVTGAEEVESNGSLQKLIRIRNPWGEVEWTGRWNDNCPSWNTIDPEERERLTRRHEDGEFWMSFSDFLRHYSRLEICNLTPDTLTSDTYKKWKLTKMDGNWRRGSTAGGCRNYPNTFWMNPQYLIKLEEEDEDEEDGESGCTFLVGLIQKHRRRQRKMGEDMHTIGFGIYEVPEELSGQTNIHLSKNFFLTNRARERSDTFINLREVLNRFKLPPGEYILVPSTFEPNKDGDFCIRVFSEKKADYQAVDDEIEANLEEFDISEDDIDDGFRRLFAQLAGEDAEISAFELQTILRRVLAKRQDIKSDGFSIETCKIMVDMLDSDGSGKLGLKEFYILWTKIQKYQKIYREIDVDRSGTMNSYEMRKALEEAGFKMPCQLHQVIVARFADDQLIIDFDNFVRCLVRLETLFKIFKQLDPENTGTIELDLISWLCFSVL
T2 sequence (P04632 1-268 partner): T1 sequence (P04632 1-268 partner)
Nature of the test: Calpain inhibition continuous fluorescence (FRET) assay, Human Calpain 2/NS1. In kind it is biochemical. In short, it runs like this: as §1

Another test has as its target T3, Human Calpain 9/NS1 (Homo sapiens, UniProt O14815).
T3 sequence (O14815 1-690): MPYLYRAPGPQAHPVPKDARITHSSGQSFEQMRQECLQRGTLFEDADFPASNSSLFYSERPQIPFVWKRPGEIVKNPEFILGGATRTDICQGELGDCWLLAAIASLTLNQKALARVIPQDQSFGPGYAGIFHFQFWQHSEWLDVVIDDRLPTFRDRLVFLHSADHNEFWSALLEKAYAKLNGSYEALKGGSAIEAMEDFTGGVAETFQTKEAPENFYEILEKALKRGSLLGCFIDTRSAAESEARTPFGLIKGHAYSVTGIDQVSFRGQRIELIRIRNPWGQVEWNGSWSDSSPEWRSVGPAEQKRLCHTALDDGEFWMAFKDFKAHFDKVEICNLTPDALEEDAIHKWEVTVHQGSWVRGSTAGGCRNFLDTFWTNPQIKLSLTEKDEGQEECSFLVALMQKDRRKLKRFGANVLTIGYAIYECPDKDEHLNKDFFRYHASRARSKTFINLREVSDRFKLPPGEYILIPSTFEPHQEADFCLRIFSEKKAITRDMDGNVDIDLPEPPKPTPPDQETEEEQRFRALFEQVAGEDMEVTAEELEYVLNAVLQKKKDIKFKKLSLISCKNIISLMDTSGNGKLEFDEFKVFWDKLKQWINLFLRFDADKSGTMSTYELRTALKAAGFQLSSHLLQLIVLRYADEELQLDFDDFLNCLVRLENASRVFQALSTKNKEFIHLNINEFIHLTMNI
T3 sequence (P04632 1-268 partner): T1 sequence (P04632 1-268 partner)
The test is described as follows: Calpain inhibition continuous fluorescence (FRET) assay, Human Calpain 9/NS1. The format is biochemical. In short, it runs like this: as §1

For test [1], the system named is Calpain activity in SH-SY5Y cells (SBDP-150). The test is described as follows: SH-SY5Y Spectrin western blot assay (SBDP-150 breakdown product, A23187-induced). The settings on record: Homo sapiens, read-out: SH-SY5Y Spectrin IC50. The format is cell-based. For orientation: Immunoblotting shows a protein as a band on a membrane.
Test [2] deals with Calpain activity in SH-SY5Y cells. Nature of the test: SH-SY5Y + AMC fluorescence assay (Suc-LLVY-AMC substrate). The format is cell-based.
The mark [3] stands for this setting: read-out: Human Calpain 1/NS1 IC50.
Setting [4] is: read-out: Human Calpain 2/NS1 IC50.
The mark [5] stands for this setting: read-out: Human Calpain 9/NS1 IC50.
[6] abbreviates: SH-SY5Y cells, A23187-induced SBDP-150, western blot.
Where [7] appears, read: Column A, read-out: Human Calpain 1/NS1 IC50.
Where [8] appears, read: Column B, read-out: Human Calpain 2/NS1 IC50.
Where [9] appears, read: Column C, read-out: Human Calpain 9/NS1 IC50.
The mark [10] stands for this setting: Column D, SH-SY5Y cells, A23187-induced SBDP-150.
The mark [11] stands for this setting: Column E, read-out: SH-SY5Y + AMC IC50.
The mark [12] stands for this setting: read-out: SH-SY5Y + AMC IC50, Column E.

In the case of `Cc1cc(C(=O)NC(Cc2ccccc2)C(=O)C(=O)NC2CC2)n(-c2ccccn2)n1` (centres unmarked) [Compound 456, N-(4-(cyclopropylamino)-3,4-dioxo-1-phenylbutan-2-yl)-3-methyl-1-(pyridin-2-yl)-1H-pyrazole-5-carboxamide], the IC50 was below 3 µM at Human Calpain 1/NS1 (setting [3]); below 3 µM at Human Calpain 2/NS1 (setting [4]); below 3 µM at Human Calpain 9/NS1 (setting [5]); above 25 µM in test [1] (setting [6]); below 10 µM in test [2] (read-out: SH-SY5Y + AMC IC50).
For the compound `CC[C@H](NC(=O)c1cn(C)nc1-c1ccccc1)C(=O)C(N)=O` [Compound 332, (S)—N-(1-amino-1,2-dioxopentan-3-yl)-1-methyl-3-phenyl-1H-pyrazole-4-carboxamide], the IC50 at Human Calpain 1/NS1 (setting [3]) was below 3 µM; on Human Calpain 2/NS1 (setting [4]), below 3 µM; on Human Calpain 9/NS1 (setting [5]), below 3 µM; in test [1] (setting [6]), above 25 µM; in test [2] (read-out: SH-SY5Y + AMC IC50), above 25 µM.
In the case of `Cc1nc(-c2ccccc2)c(C(=O)N[C@@H](Cc2ccc(O)cc2)C(=O)C(N)=O)o1` [Compound 354], the IC50 at Human Calpain 1/NS1 (setting [3]) was below 3 µM; at Human Calpain 2/NS1 (setting [4]), below 3 µM; at Human Calpain 9/NS1 (setting [5]) it was below 3 µM; in test [1] (setting [6]), below 10 µM; in test [2] (read-out: SH-SY5Y + AMC IC50), below 10 µM.
On to `Cc1cc(C(=O)N[C@@H](Cc2ccccc2)C(=O)C(N)=O)n(-c2ccc(C#N)cn2)n1` [Compound 208], for which the IC50 was below 3 µM at Human Calpain 1/NS1 (setting [7]); below 3 µM at Human Calpain 2/NS1 (setting [8]); below 3 µM at Human Calpain 9/NS1 (setting [9]); below 10 µM in test [1] (setting [10]); above 25 µM in test [2] (setting [11]).
Consider `Cc1cccc(-c2oncc2C(=O)NC(Cc2ccccc2)C(=O)C(N)=O)c1F` (centres unmarked) [Compound 584, N-(4-amino-3,4-dioxo-1-phenylbutan-2-yl)-5-(2-fluoro-3-methylphenyl)isoxazole-4-carboxamide], for which the IC50 on Human Calpain 1/NS1 (setting [3]) was below 3 µM; on Human Calpain 2/NS1 (setting [4]) it was below 3 µM; on Human Calpain 9/NS1 (setting [5]) it was below 3 µM; in test [1] (setting [6]) it was below 10 µM; in test [2] (read-out: SH-SY5Y + AMC IC50), 10 to 25 µM.
`Cc1cc(C(=O)N[C@@H](Cc2ccccc2)C(=O)C(N)=O)n(-c2ccc(CNC(=O)Oc3ccccc3)cc2)n1` [Compound 162, Phenyl (S)-(4-(5-((4-amino-3,4-dioxo-1-phenylbutan-2-yl)carbamoyl)-3-methyl-1H-pyrazol-1-yl)benzyl)carbamate]: the IC50 was below 3 µM at Human Calpain 1/NS1; below 3 µM at Human Calpain 2/NS1; below 3 µM against Human Calpain 9/NS1; above 25 µM in test [1] (SH-SY5Y); above 25 µM in test [2] (setting [12]).
For the compound `Cn1cc(C(=O)N[C@@H](Cc2ccccc2)C(=O)C(N)=O)c(-c2cncnc2)n1` [Compound 173, (S)—N-(4-amino-3,4-dioxo-1-phenylbutan-2-yl)-1-methyl-3-(pyrimidin-5-yl)-1H-pyrazole-4-carboxamide], the IC50 on Human Calpain 1/NS1 (setting [7]) is below 3 µM; at Human Calpain 2/NS1 (setting [8]) it was below 3 µM; at Human Calpain 9/NS1 (setting [9]), below 3 µM; in test [1] (setting [10]), above 25 µM; in test [2] (setting [11]), above 25 µM.
For the compound `COC(=O)NCc1ccc(-n2nc(C)cc2C(=O)N[C@@H](Cc2ccccc2)C(=O)C(N)=O)cc1` [Compound 158, Methyl (S)-(4-(5-((4-amino-3,4-dioxo-1-phenylbutan-2-yl)carbamoyl)-3-methyl-1H-pyrazol-1-yl)benzyl)carbamate], the IC50 at Human Calpain 1/NS1 (setting [7]) was below 3 µM; at Human Calpain 2/NS1 (setting [8]), below 3 µM; at Human Calpain 9/NS1 (setting [9]), below 3 µM; in test [1] (setting [10]), 10 to 25 µM; in test [2] (setting [11]) it was above 25 µM.
Regarding `COc1ccc(C[C@H](NC(=O)c2oc(C)nc2-c2ccccc2)C(=O)C(N)=O)cc1` [Compound 385, (S)—N-(4-amino-1-(4-methoxyphenyl)-3,4-dioxobutan-2-yl)-2-methyl-4-phenyloxazole-5-carboxamide], the IC50 on Human Calpain 1/NS1 (setting [3]) is below 3 µM; at Human Calpain 2/NS1 (setting [4]), below 3 µM; at Human Calpain 9/NS1 (setting [5]), below 3 µM; in test [1] (setting [6]) it was below 10 µM; in test [2] (read-out: SH-SY5Y + AMC IC50) it was above 25 µM.
`NC(=O)C(=O)C(Cc1ccccc1)NC(=O)c1nsnc1Br` (centres unmarked) [Compound 366, N-(4-amino-3,4-dioxo-1-phenylbutan-2-yl)-4-bromo-1,2,5-thiadiazole-3-carboxamide]: the IC50 at Human Calpain 1/NS1 (setting [3]) is below 3 µM; at Human Calpain 2/NS1 (setting [4]), below 3 µM; on Human Calpain 9/NS1 (setting [5]), below 3 µM; in test [1] (setting [6]), 10 to 25 µM; in test [2] (read-out: SH-SY5Y + AMC IC50) it was below 10 µM.
For the compound `NC(=O)C(=O)C(Cc1ccccc1)NC(=O)c1cn(C(F)F)nc1-c1cccc2c1OCCO2` (centres unmarked) [Compound 555], the IC50 at Human Calpain 1/NS1 (setting [3]) was below 3 µM; at Human Calpain 2/NS1 (setting [4]) it was below 3 µM; at Human Calpain 9/NS1 (setting [5]) it was below 3 µM; in test [1] (setting [6]), above 25 µM; in test [2] (read-out: SH-SY5Y + AMC IC50), below 10 µM.
Take `Cn1cc(C(=O)NC(Cc2ccccc2)C(=O)C(N)=O)c(-c2cccc(C(F)(F)F)n2)n1` (centres unmarked) [Compound 198, N-(4-amino-3,4-dioxo-1-phenylbutan-2-yl)-1-methyl-3-(6-(trifluoromethyl)pyridin-2-yl)-1H-pyrazole-4-carboxamide]: the IC50 on Human Calpain 1/NS1 (setting [7]) is below 3 µM; on Human Calpain 2/NS1 (setting [8]), below 3 µM; on Human Calpain 9/NS1 (setting [9]), below 3 µM; in test [1] (SH-SY5Y), above 25 µM; in test [2] (setting [12]) it was above 25 µM.
Turning to `C#Cc1nccc(-n2nc(C)cc2C(=O)NC(Cc2ccccc2)C(=O)C(N)=O)n1` (centres unmarked) [Compound 432, N-(4-amino-3,4-dioxo-1-phenylbutan-2-yl)-1-(2-ethynylpyrimidin-4-yl)-3-methyl-1H-pyrazole-5-carboxamide], the IC50 was below 3 µM on Human Calpain 1/NS1 (setting [3]); below 3 µM on Human Calpain 2/NS1 (setting [4]); below 3 µM at Human Calpain 9/NS1 (setting [5]); below 10 µM in test [1] (setting [6]); below 10 µM in test [2] (read-out: SH-SY5Y + AMC IC50).
